According to ChEMBL document CHEMBL1201862, “PubChem BioAssay data set” (2004):
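96-well plates; 48 h exposure; 5 concentrations. Endpoints by linear interpolation between flanking doses. Not reached: highest tested concentration assigned. Here, GI50 denotes the concentration required for 50% inhibition of growth.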 Calls of active or inactive are those of the source. Rule as the data show it: active = GI50 up to about 1.1 µM and inactive = higher.

Legend:
Experiment in all cases: NCI anticancer screen, dose series, 48 h
ACHN = system: ACHN
CAKI-1 = system: CAKI-1
COLO 205 = system: COLO 205
HCC 2998 = system: HCC 2998
HOP-92 = system: HOP-92
HT-29 = system: HT-29
LOX IMVI = system: LOX IMVI
MCF7 = system: MCF7
MOLT-4 = system: MOLT-4
NCI-H23 = system: NCI-H23
PC-3 = system: PC-3
RXF 393 = system: RXF 393
SF-268 = system: SF-268
SK-MEL-28 = system: SK-MEL-28
SK-OV-3 = system: SK-OV-3
SN12C = system: SN12C
TK-10 = system: TK-10
U-251 = system: U-251
UACC-257 = system: UACC-257
UACC-62 = system: UACC-62

SMILES	GI50 (ACHN)	GI50 (CAKI-1)	GI50 (COLO 205)	GI50 (HCC 2998)	GI50 (HOP-92)	GI50 (HT-29)	GI50 (LOX IMVI)	GI50 (MCF7)	GI50 (MOLT-4)	GI50 (NCI-H23)	GI50 (PC-3)	GI50 (RXF 393)	GI50 (SF-268)	GI50 (SK-MEL-28)	GI50 (SK-OV-3)	GI50 (SN12C)	GI50 (TK-10)	GI50 (U-251)	GI50 (UACC-257)	GI50 (UACC-62)
CC(C)C[C@H](NC(=O)[C@@H](Cc1cccc2ccccc12)NC(=O)N1CCOCC1)B(O)O	9.25 µM (inactive)	11.1 µM (inactive)	16.4 µM (inactive)	2.01 µM (inactive)	2.67 µM (inactive)	2.64 µM (inactive)	2.36 µM (inactive)	5.43 µM (inactive)	3.2 µM (inactive)	2.9 µM (inactive)	7.82 µM (inactive)	2.4 µM (inactive)	2.96 µM (inactive)	2.14 µM (inactive)	6.85 µM (inactive)	5.55 µM (inactive)	6.47 µM (inactive)	4.57 µM (inactive)	2.18 µM (inactive)	4.02 µM (inactive)
CCN(CC)CC(C)(C)C(=O)/C=C/c1ccc(/C=C/C(=O)C(C)(C)CN(CC)CC)cc1	1.34 µM (inactive)	0.733 µM (active)	0.339 µM (active)	0.333 µM (active)	0.397 µM (active)	0.211 µM (active)	0.263 µM (active)	0.233 µM (active)	0.14 µM (active)	0.991 µM (active)	0.414 µM (active)	0.233 µM (active)	0.512 µM (active)	0.796 µM (active)	2.09 µM (inactive)	0.471 µM (active)	1.19 µM (inactive)	0.469 µM (active)	1.62 µM (inactive)	1.46 µM (inactive)
O=C(O)C(Oc1nc(S)nc(S)n1)(c1ccc(Cl)cc1)c1ccc(Cl)cc1	> 100 µM (inactive)	> 100 µM (inactive)	> 100 µM (inactive)	92.7 µM (inactive)	> 100 µM (inactive)	> 100 µM (inactive)	> 100 µM (inactive)	> 100 µM (inactive)	> 100 µM (inactive)	> 100 µM (inactive)	> 100 µM (inactive)	> 100 µM (inactive)	> 100 µM (inactive)	> 100 µM (inactive)	> 100 µM (inactive)	> 100 µM (inactive)	> 100 µM (inactive)	> 100 µM (inactive)	> 100 µM (inactive)	> 100 µM (inactive)
N#Cc1c(SCc2ccccc2)nc(-c2ccccc2)[nH]c1=S	23 µM (inactive)	33.3 µM (inactive)	17.1 µM (inactive)	19.3 µM (inactive)	31.6 µM (inactive)	28.4 µM (inactive)	30 µM (inactive)	26.1 µM (inactive)	29 µM (inactive)	18.2 µM (inactive)	18.7 µM (inactive)	19.2 µM (inactive)	22 µM (inactive)	22.3 µM (inactive)	23.4 µM (inactive)	32.5 µM (inactive)	32.7 µM (inactive)	21.4 µM (inactive)	35.2 µM (inactive)	21.7 µM (inactive)
COc1ccc(/C=C\c2cc(OC)c(OC)c(OC)c2)cc1OC	0.348 µM (active)	0.156 µM (active)	0.0767 µM (active)	0.134 µM (active)	9.66 µM (inactive)	0.124 µM (active)	0.32 µM (active)	0.0968 µM (active)	0.194 µM (active)	0.216 µM (active)	0.112 µM (active)	0.121 µM (active)	0.298 µM (active)	0.143 µM (active)	0.114 µM (active)	0.216 µM (active)	0.186 µM (active)	0.117 µM (active)	0.136 µM (active)	0.197 µM (active)
CC1=C(C(=O)Nc2ccccc2)C(c2ccc(N(C)C)cc2)C(C(=O)Nc2ccccc2)=C(C)N1	0.494 µM (active)	25.3 µM (inactive)	1.41 µM (inactive)	2.86 µM (inactive)	65.9 µM (inactive)	3.72 µM (inactive)	2.82 µM (inactive)	10.3 µM (inactive)	2.89 µM (inactive)	24.9 µM (inactive)	4.08 µM (inactive)	> 85.1 µM (inactive)	9.31 µM (inactive)	12.4 µM (inactive)	59.2 µM (inactive)	46.3 µM (inactive)	39.4 µM (inactive)	15.9 µM (inactive)	8.32 µM (inactive)	0.2 µM (active)
COc1ccc(C2Oc3ccc(Cl)cc3C=C2[N+](=O)[O-])cc1OC (stereo not given)	1.43 µM (inactive)	1.67 µM (inactive)	1.16 µM (inactive)	1.77 µM (inactive)	1.88 µM (inactive)	1 µM (active)	0.32 µM (active)	0.776 µM (active)	0.216 µM (active)	1.61 µM (inactive)	1.32 µM (inactive)	1.59 µM (inactive)	0.617 µM (active)	1.27 µM (inactive)	2.3 µM (inactive)	0.871 µM (active)	1.51 µM (inactive)	1.05 µM (active)	1.41 µM (inactive)	1.5 µM (inactive)
CC1=C(C2=C(C)C(=O)C(=O)c3cc(C)ccc32)c2ccc(C)cc2C(=O)C1=O	0.189 µM (active)	0.182 µM (active)	0.269 µM (active)	0.155 µM (active)	0.174 µM (active)	0.277 µM (active)	0.207 µM (active)	0.218 µM (active)	0.287 µM (active)	0.208 µM (active)	0.298 µM (active)	0.234 µM (active)	0.203 µM (active)	0.185 µM (active)	1.45 µM (inactive)	0.197 µM (active)	0.64 µM (active)	0.226 µM (active)	0.193 µM (active)	0.191 µM (active)
NCCOc1cccc(C2(N3CCCCC3)CCCCC2)c1	> 100 µM (inactive)	94 µM (inactive)	12.3 µM (inactive)	19.9 µM (inactive)	0.773 µM (active)	15.5 µM (inactive)	14.7 µM (inactive)	38.8 µM (inactive)	19.4 µM (inactive)	> 100 µM (inactive)	31.5 µM (inactive)	22 µM (inactive)	25.6 µM (inactive)	18.7 µM (inactive)	> 100 µM (inactive)	> 100 µM (inactive)	33.7 µM (inactive)	18.2 µM (inactive)	19 µM (inactive)	20.2 µM (inactive)
CN(C)c1ccc(/C=C/C=C(/C#N)c2ccccc2)cc1	34.4 µM (inactive)	33.5 µM (inactive)	20.4 µM (inactive)	30.3 µM (inactive)	78.7 µM (inactive)	7.57 µM (inactive)	11.2 µM (inactive)	17.7 µM (inactive)	11.8 µM (inactive)	36.9 µM (inactive)	39.3 µM (inactive)	36.8 µM (inactive)	37.3 µM (inactive)	> 82.4 µM (inactive)	34.8 µM (inactive)	45.4 µM (inactive)	42.8 µM (inactive)	17.1 µM (inactive)	40.7 µM (inactive)	19.2 µM (inactive)
CC1=C(C)C(=O)C(C2=C(C3=CC(=O)C(C)=C(C)C3=O)C(=O)C(C)=C(C)C2=O)=CC1=O	5.79 µM (inactive)	3.44 µM (inactive)	2.89 µM (inactive)	15.2 µM (inactive)	0.61 µM (active)	3.01 µM (inactive)	2.57 µM (inactive)	2.67 µM (inactive)	0.697 µM (active)	14.7 µM (inactive)	4.62 µM (inactive)	1.83 µM (inactive)	12.6 µM (inactive)	6.87 µM (inactive)	17.4 µM (inactive)	13.9 µM (inactive)	12 µM (inactive)	3.68 µM (inactive)	13.3 µM (inactive)	10.5 µM (inactive)
COc1cc2cc[n+](C)c(Cc3ccc(Oc4cc(Cc5c6cc(OC)c(OC)cc6cc[n+]5C)ccc4OC)cc3)c2cc1OC	> 100 µM (inactive)	> 100 µM (inactive)	> 100 µM (inactive)	> 100 µM (inactive)	> 100 µM (inactive)	> 100 µM (inactive)	79.8 µM (inactive)	> 100 µM (inactive)	60.1 µM (inactive)	> 100 µM (inactive)	91.4 µM (inactive)	> 100 µM (inactive)	> 100 µM (inactive)	> 100 µM (inactive)	> 100 µM (inactive)	> 100 µM (inactive)	40.3 µM (inactive)	> 100 µM (inactive)	> 100 µM (inactive)	> 100 µM (inactive)
O=[N+]([O-])c1ccc2c(c1)Nc1c3ccccc3nc3cccc-2c13	18.1 µM (inactive)	4.67 µM (inactive)	2.68 µM (inactive)	0.183 µM (active)	4.73 µM (inactive)	3.1 µM (inactive)	1.93 µM (inactive)	0.219 µM (active)	0.895 µM (active)	4.85 µM (inactive)	2.35 µM (inactive)	8.39 µM (inactive)	8.61 µM (inactive)	6.52 µM (inactive)	2.04 µM (inactive)	11.3 µM (inactive)	5.38 µM (inactive)	3.18 µM (inactive)	16.9 µM (inactive)	4.16 µM (inactive)
CO[C@@H]1C[C@H]2N3CC[C@@]2(c2cc4c(cc2C3)OCO4)[C@H]2O[C@@H]12	> 100 µM (inactive)	> 100 µM (inactive)	0.851 µM (active)	> 100 µM (inactive)	> 100 µM (inactive)	> 100 µM (inactive)	> 100 µM (inactive)	> 100 µM (inactive)	> 100 µM (inactive)	> 100 µM (inactive)	> 100 µM (inactive)	> 100 µM (inactive)	> 100 µM (inactive)	> 100 µM (inactive)	> 100 µM (inactive)	> 100 µM (inactive)	> 100 µM (inactive)	> 100 µM (inactive)	> 100 µM (inactive)	> 100 µM (inactive)
